Holding throughout (type): cell-based
In assay [1] the test system is p21 promoter-luciferase construct in HeLa cells. Kind of assay: p21 reporter gene induction. To be noted: 3 micromolar, 15 hours, relative to SNDX-275. The protocol:
(§1) The novel compounds of the present invention were tested for their ability to induce p21 gene expression using a reporter gene assay involving HeLa cells transfected with a p21 promoter-luciferase construct. The p21 promoter contained the Sp1/Sp3 binding site for HDAC but not the upstream p53 binding site. Briefly, the day before transfection, HeLa cells were seeded at 11,000 cells/well in a 96-well culture plate and incubated at 37 degrees Celsius in 5% CO2 overnight. For transfection, the medium was removed and replaced with 100 microliters/well transfection media previously prepared as follows: 5 microliters serum-free DMEM, 0.15 microliters Fugene 6 reagent, 40 ng p21-luc, 10 ng GFP were mixed gently and incubated at room temperature for 30 minutes; then 98 microliters DMEM (with 10% FBS, 1% penicillin and streptomycin) was added to the DNA:Fugene 6 reagent complex and mixed gently. After incubating the cells for 24 hours at 37 degrees Celsius in 5% CO2, fresh media and test compounds were added to the wells and the cells further incubated for 15 hours at 37 degrees Celsius in 5% CO2. Cells were lysed by adding 80 microliters/well of a cell culture lysis reagent (Promega). 50 microliters of each lysate was taken for GFP detection using an excitation wavelength of 486 nm and detection at 527 nm. 100 microliters Luciferase assay reagent (Promega) was then added to every 20 microliters cell lysate for luminometer detection. […] Induction activity for specific representative compounds can be found in Table 4.
Background: In a reporter assay the amount or activity of a reporter protein is the signal.

For assay [2], the system named is klf2 promoter-luciferase construct in A204 cells. Kind of assay: klf2 reporter gene induction (p21 versus klf2 selectivity). The conditions noted are these: SNDX-275 p21/klf2 ratio defined as 1.0; for p21/klf2 (RP3): relative selectivity compared with SNDX-275: 3 micromolar; for p21/klf2 (RP10): relative selectivity compared with SNDX-275: 10 micromolar. The protocol: as §1
The novel compounds of the present invention were tested for their ability to induce klf2 gene expression using a reporter gene assay involving A204 cells transfected with a klf2 promoter-luciferase construct. The klf2 promoter contained the MEF2 binding site for HDAC3/class IIa HDAC complex. Briefly, the day before transfection, A204 cells were seeded at 11,000 cells/well in a 96-well culture plate and incubated at 37 degrees Celsius in 5% CO2 overnight. For transfection, the medium was removed and replaced with 100 microliters/well transfection media previously prepared as follows: 5 microliters serum-free DMEM, 0.15 microliters Fugene 6 reagent, 40 ng klf2-luc, 10 ng GFP were mixed gently and incubated at room temperature for 30 minutes; then 98 microliters DMEM (with 10% FBS, 1% penicillin and streptomycin) was added to the DNA:Fugene 6 reagent complex and mixed gently. After incubating the cells for 24 hours at 37 degrees Celsius in 5% CO2, fresh media and test compounds were added to the wells and the cells further incubated for 15 hours at 37 degrees Celsius in 5% CO2. Finally, 10 ng/ml TNF-α was added and the cells further incubated for 4 hours. Cells were lysed by adding 80 microliters/well of a cell culture lysis reagent (Promega). 50 microliters of each lysate was taken for GFP detection using an excitation wavelength of 486 nm and detection at 527 nm. 100 microliters Luciferase assay reagent (Promega) was then added to every 20 microliters cell lysate for luminometer detection.

Assay [3] deals with HCT-116 colon cancer cells. The assay is described as follows: Antiproliferative activity, growth inhibition (MTS/WST assay). To be noted: Homo sapiens, 72 hour growth inhibition, read-out: GI50 HCT116. The protocol:
The novel compounds of the present invention were tested for their ability to inhibit growth of various cancer cell lines (HeLa, MCF7, U2OS, HepG2, HL60, HCT-116) using in vitro growth inhibition assays described below.
Cells were seeded in 96-well culture plates (200 microliters/well at different seeding concentrations depending on cell type) and incubated overnight at 37 degrees Celsius in 5% CO2. After adding compound dilutions to the cells (DMSO concentration kept below 0.5%), the cells were incubated at 37 degrees Celsius in 5% CO2 for 72 hours. The effects on proliferation were determined by addition of MTS reagent (Promega) according to the manufacturer's instruction, followed by incubation for 2 hours at 37 degrees Celsius in 5% CO2, and finally recording the absorbance at 490 nm using an ELISA plate reader.
Similar to MTS assay except that the developer is the CCK-8 reagent (Dojindo) and the plate reader is set to 450 nm absorbance.
GI50 values against HCT-116 colon cancer cells for specific representative compounds can be found in Table 4.

Structures are written as SMILES.

In the case of `CN(C)CCNC(C(=O)Nc1ccc(OC(F)(F)F)cc1)c1ccc(/C=C/C(=O)Nc2ccccc2N)cc1` (stereo not shown) [Example 4-6, (E)-N-(2-Amino-phenyl)-3-{4-[(2-dimethylamino-ethylamino)-(4-trifluoromethoxy-phenylcarbamoyl)-methyl]-phenyl}-acrylamide], in assay [1], the “p21 (RP3): relative induction potency compared with SNDX-275” value (“p21 (RP3): relative induction potency” for short) amounted to 184%. In assay [2], the “p21/klf2 (RP3): relative selectivity compared with SNDX-275” value (“p21/klf2 (RP3): relative selectivity” below) came out at 1.4 and the “p21/klf2 (RP10): relative selectivity compared with SNDX-275” value (from here on “p21/klf2 (RP10): relative selectivity”) was found to be 3.0. Besides, the GI50 (as a rule, the concentration at which growth is held to half of that of the control) in assay [3] stood at 600 nM.

With `Nc1ccccc1NC(=O)/C=C/c1ccc(C(NCCCN2CCOCC2)C(=O)Nc2ccc(C(F)(F)F)cc2)cc1` (stereo not shown) [Example 4-5, (E)-N-(2-Amino-phenyl)-3-{4-[(3-morpholin-4-yl-propylamino)-(4-trifluoromethyl-phenylcarbamoyl)-methyl]-phenyl}-acrylamide], in assay [1], the “p21 (RP3): relative induction potency” value turned out to be 241%. For the same molecule, in assay [2], the “p21/klf2 (RP3): relative selectivity” value came out at 1.2 and the “p21/klf2 (RP10): relative selectivity” value stood at 4.5. In assay [3], the GI50 turned out to be 800 nM.

`CN(C)CCNC(C(=O)Nc1ccc(C(F)(F)F)cc1)c1ccc(/C=C/C(=O)Nc2ccccc2N)cc1` (stereo not shown) [Example 4-1, (E)-N-(2-Amino-phenyl)-3-{4-[(2-dimethylamino-ethylamino)-(4-trifluoromethyl-phenylcarbamoyl)-methyl]-phenyl}-acrylamide]: the “p21 (RP3): relative induction potency” value in assay [1] is 300%. Moreover, in assay [2], the “p21/klf2 (RP3): relative selectivity” value turned out to be 1.4 and the “p21/klf2 (RP10): relative selectivity” value was 5.5. The GI50 in assay [3] was 700 nM.

Take `N#Cc1ccc(NC(=O)C(NCCN2CCOCC2)c2ccc(/C=C/C(=O)Nc3ccccc3N)cc2)cc1` (stereo not shown) [Example 4-3, (E)-N-(2-Amino-phenyl)-3-{4-[(4-cyano-phenylcarbamoyl)-(2-morpholin-4-yl-ethylamino)-methyl]-phenyl}-acrylamide]: in assay [1], the “p21 (RP3): relative induction potency” value was 99%. Moreover, in assay [2], the “p21/klf2 (RP3): relative selectivity” value worked out at 0.8 and the “p21/klf2 (RP10): relative selectivity” value is reported as 1.2. In addition, in assay [3], the GI50 was found to be 1000 nM.

`Nc1ccccc1NC(=O)/C=C/c1ccc(C(NCCN2CCCCC2)C(=O)Nc2ccc(Br)cc2)cc1` (stereo not shown) [Example 4-31, (E)-N-(2-Amino-phenyl)-3-{4-[(4-bromo-phenylcarbamoyl)-(2-piperidin-1-yl-ethylamino)-methyl]-phenyl}-acrylamide]: the “p21 (RP3): relative induction potency” value in assay [1] was 178%. Moreover, in assay [2], the “p21/klf2 (RP3): relative selectivity” value is on record as 1.2 and the “p21/klf2 (RP10): relative selectivity” value is given as 1.2. In assay [3], the GI50 was found to be 200 nM.

With `Nc1ccccc1NC(=O)/C=C/c1ccc(C(NCCN2CCCCC2)C(=O)Nc2ccc(C(F)(F)F)cc2F)cc1` (stereo not shown) [Example 4-35, (E)-N-(2-Amino-phenyl)-3-{4-[(2-fluoro-4-trifluoromethyl-phenylcarbamoyl)-(2-piperidin-1-yl-ethylamino)-methyl]-phenyl}-acrylamide], the “p21 (RP3): relative induction potency” value in assay [1] turned out to be 140%. In assay [2], the “p21/klf2 (RP3): relative selectivity” value worked out at 2.0 and the “p21/klf2 (RP10): relative selectivity” value was 3.0. For the same molecule, the GI50 in assay [3] worked out at 1300 nM.

As to `Nc1ccccc1NC(=O)/C=C/c1ccc(C(NCCN2CCCCC2)C(=O)Nc2ccc(C(F)(F)F)cc2)cc1` (stereo not shown) [Example 4-2, (E)-N-(2-Amino-phenyl)-3-{4-[(2-piperidin-1-yl-ethylamino)-(4-trifluoromethyl-phenylcarbamoyl)-methyl]-phenyl}-acrylamide], in assay [1], the “p21 (RP3): relative induction potency” value was found to be 324%. In assay [2], the “p21/klf2 (RP3): relative selectivity” value is listed as 2.2 and the “p21/klf2 (RP10): relative selectivity” value is 3.6. Moreover, in assay [3], the concentration for 50% growth inhibition (GI50) was 700 nM.

For the molecule `CC(C)c1ccc(NC(=O)C(NCCN2CCOCC2)c2ccc(/C=C/C(=O)Nc3ccccc3N)cc2)cc1` (stereo not shown) [Example 4-37, (E)-N-(2-Amino-phenyl)-3-{4-[(4-isopropyl-phenylcarbamoyl)-(2-morpholin-4-yl-ethylamino)-methyl]-phenyl}-acrylamide], the “p21 (RP3): relative induction potency” value in assay [1] worked out at 60%. Moreover, in assay [2], the “p21/klf2 (RP3): relative selectivity” value worked out at 1.1 and the “p21/klf2 (RP10): relative selectivity” value amounted to 1.7. Also, the GI50 in assay [3] was determined as 1000 nM.

For `Cc1ccc(NC(=O)C(NCCN2CCOCC2)c2ccc(/C=C/C(=O)Nc3ccccc3N)cc2)cc1` (stereo not shown) [Example 30-54, (E)-N-(2-Amino-phenyl)-3-{4-[(2-morpholin-4-yl-ethylamino)-p-tolylcarbamoyl-methyl]-phenyl}-acrylamide], the “p21 (RP3): relative induction potency” value in assay [1] is listed as 183%. In addition, in assay [2], the “p21/klf2 (RP3): relative selectivity” value was 2.0 and the “p21/klf2 (RP10): relative selectivity” value was 1.3. In addition, in assay [3], the GI50 amounted to 1000 nM.

As to `Nc1ccccc1NC(=O)/C=C/c1ccc(C(NCCN2C[C@@H]3C[C@H]2CO3)C(=O)Nc2ccc(C(F)(F)F)cc2)cc1` (stereo partly drawn) [Example 4-12, (E)-N-(2-Amino-phenyl)-3-{4-[[(1S,4S)-2-(2-oxa-5-aza-bicyclo[2.2.1]hept-5-yl)-ethylamino]-(4-trifluoromethyl-phenylcarbamoyl)-methyl]-phenyl}-acrylamide], the “p21 (RP3): relative induction potency” value in assay [1] was 167%. For the same molecule, in assay [2], the “p21/klf2 (RP3): relative selectivity” value turned out to be 10.6 and the “p21/klf2 (RP10): relative selectivity” value is on record as 0.8. Besides, the GI50 in assay [3] came out at 400 nM.

On to `Nc1ccccc1NC(=O)/C=C/c1ccc(C(NCCC2CCOCC2)C(=O)Nc2ccc(C(F)(F)F)cc2)cc1` (stereo not shown) [Example 9-18, (E)-N-(2-Amino-phenyl)-3-{4-[[2-(tetrahydro-pyran-4-yl)-ethylamino]-(4-trifluoromethyl-phenylcarbamoyl)-methyl]-phenyl}-acrylamide], for which, in assay [1], the “p21 (RP3): relative induction potency” value worked out at 70%. Further, in assay [2], the “p21/klf2 (RP3): relative selectivity” value came out at 1.0 and the “p21/klf2 (RP10): relative selectivity” value was 1.7. Moreover, the GI50 in assay [3] came out at 1000 nM.

As for `Nc1ccccc1NC(=O)/C=C/c1ccc(C(NCCN2CCOCC2)C(=O)Nc2ccc(Cl)cc2)cc1` (stereo not shown) [Example 30-33, (E)-N-(2-Amino-phenyl)-3-{4-[(4-chloro-phenylcarbamoyl)-(2-morpholin-4-yl-ethylamino)-methyl]-phenyl}-acrylamide], the “p21 (RP3): relative induction potency” value in assay [1] turned out to be 193%. In addition, in assay [2], the “p21/klf2 (RP3): relative selectivity” value came out at 2.1 and the “p21/klf2 (RP10): relative selectivity” value is given as 1.2. Besides, the GI50 in assay [3] came to 900 nM.

For `Nc1ccccc1NC(=O)/C=C/c1ccc(C(NCCN2CCOCC2)C(=O)Nc2ccc(C(F)(F)F)c(Cl)c2)cc1` (stereo not shown) [Example 4-29, (E)-N-(2-Amino-phenyl)-3-{4-[(3-chloro-4-trifluoromethyl-phenylcarbamoyl)-(2-morpholin-4-yl-ethylamino)-methyl]-phenyl}-acrylamide], the “p21 (RP3): relative induction potency” value in assay [1] is on record as 48%. In addition, in assay [2], the “p21/klf2 (RP3): relative selectivity” value was 0.6 and the “p21/klf2 (RP10): relative selectivity” value stood at 2.3. For the same molecule, the GI50 in assay [3] amounted to 2100 nM.

These data come from patent US7795315B2, “N-(2-amino-phenyl)-amide derivatives” (Hoffman-La Roche Inc., priority 2008, dated 2010).
